Converted amounts (≈) assume the structure as drawn. Where two headings read alike, the source gives them in different places.
Experiments:
E. coli ATCC25922 = test: Bacterial susceptibility testing, MIC by broth microdilution (CLSI); type: cell-based; conditions: for MIC: Escherichia coli
Procedure: (§1) Minimal inhibitory concentrations (MIC) were determined by the broth microdilution method in accordance with the Clinical and Laboratory Standards Institute (CLSI) guidelines. In brief, organism suspensions were adjusted to a final inoculum between 3×10^5 and 7×10^5 colony-forming units (CFU)/mL. Drug dilutions and inocula were made in sterile, cation adjusted Mueller-Hinton Broth (Beckton Dickinson). In wells, an inoculum volume of 100 μL was mixed to 2 μL of DMSO with 2-fold serial dilutions of drug. All inoculated microdilution trays were incubated in ambient air at 35° C. for 18-24 h. Following incubation, the lowest concentration of the drug that prevented visible growth (OD600 nm<0.05) was recorded as the MIC. Performance of the assay was monitored by the use of laboratory quality-control strains and compounds with defined MIC spectrum, in accordance with CLSI guidelines.

P. aeruginosa ATCC27835 = test: as above; type: cell-based; conditions: for MIC: Pseudomonas aeruginosa
Procedure: as §1

K. pneumoniae ATCC13883 = test: as above; type: cell-based; conditions: for MIC: Klebsiella pneumoniae
Procedure: as §1

P. aeruginosa 209 PAO1 = test: as above; type: cell-based; conditions: for MIC: Pseudomonas aeruginosa
Procedure: as §1

P. aeruginosa LpxC = biological target: T1, P. aeruginosa LpxC (Pseudomonas aeruginosa, UniProt P47205); test: LpxC Binding Assay (Rapid Fire MS assay); type: biochemical
T1 sequence (P47205 1-303): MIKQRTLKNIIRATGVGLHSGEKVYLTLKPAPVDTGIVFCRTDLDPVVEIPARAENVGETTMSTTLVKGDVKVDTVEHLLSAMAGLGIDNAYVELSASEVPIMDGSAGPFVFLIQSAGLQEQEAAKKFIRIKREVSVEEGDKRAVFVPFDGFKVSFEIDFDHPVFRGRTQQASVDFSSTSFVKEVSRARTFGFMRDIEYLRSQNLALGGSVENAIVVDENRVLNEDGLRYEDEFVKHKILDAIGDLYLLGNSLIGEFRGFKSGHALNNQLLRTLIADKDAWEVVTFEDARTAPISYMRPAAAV
Procedure: (§2) IC50 values against E. coli and P. aeruginosa LpxC are determined using a Rapid Fire MS assay as previously described J. Med. Chem. 2012, 55, 1662-1670.

E. coli LpxC = E. coli LpxC (Escherichia coli, UniProt P0A725); test: LpxC Binding Assay (Rapid Fire MS assay); type: biochemical
E. coli LpxC, sequence (P0A725 whole entry): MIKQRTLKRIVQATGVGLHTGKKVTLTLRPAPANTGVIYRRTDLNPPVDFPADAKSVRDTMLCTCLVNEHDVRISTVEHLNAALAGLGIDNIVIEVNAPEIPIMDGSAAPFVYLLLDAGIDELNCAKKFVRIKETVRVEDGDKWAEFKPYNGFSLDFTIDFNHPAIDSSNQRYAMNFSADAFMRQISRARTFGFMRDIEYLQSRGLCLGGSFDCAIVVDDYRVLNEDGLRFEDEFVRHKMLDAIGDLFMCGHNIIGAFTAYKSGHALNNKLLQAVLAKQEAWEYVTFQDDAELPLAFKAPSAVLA
Procedure: as §2

[1] = ATCC25922, broth microdilution, 35° C., 18-24 h, read-out: MIC E. coli ATCC25922
[2] = ATCC27835, broth microdilution, 35° C., 18-24 h, read-out: MIC P. aeruginosa ATCC27835
[3] = ATCC13883, broth microdilution, 35° C., 18-24 h, read-out: MIC K. pneumoniae ATCC13883
[4] = PAO1, broth microdilution, 35° C., 18-24 h, read-out: MIC P. aeruginosa 209 PAO1
[5] = broth microdilution, 35° C., 18-24 h
[6] = ATCC25922, read-out: MIC E. coli ATCC25922
[7] = ATCC27835, read-out: MIC P. aeruginosa ATCC27835
[8] = ATCC13883, read-out: MIC K. pneumoniae ATCC13883
[9] = PAO1, read-out: MIC P. aeruginosa 209 PAO1

MIC (E. coli ATCC25922; [1])	MIC (P. aeruginosa ATCC27835; [2])	MIC (K. pneumoniae ATCC13883; [3])	MIC (P. aeruginosa 209 PAO1; [4])	SMILES	IC50 (P. aeruginosa LpxC)	IC50 (E. coli LpxC)	also measured
0.5 µg/mL (≈ 1.12 µM)	2 µg/mL (≈ 4.48 µM)	1 µg/mL (≈ 2.24 µM)	2 µg/mL (≈ 4.48 µM)	COC(=O)C1CC(c2ccc(-c3ccc(/C=C/[C@@H](CO)n4ccnc4[C@H](C)O)cc3)cc2)C1 (stereo partly drawn) [Compound 67, methyl 3-(4′-((S,E)-4-hydroxy-3-(2-((S)-1-hydroxyethyl)-1H-imidazol-1-yl)but-1-en-1-yl)-[1,1′-biphenyl]-4-yl)cyclobutane-1-carboxylate]	–	–	–
1 µg/mL (≈ 2.22 µM)	4 µg/mL (≈ 8.88 µM)	2 µg/mL (≈ 4.44 µM)	4 µg/mL (≈ 8.88 µM)	C[C@H](O)c1nccn1[C@@H](/C=C/c1ccc(-c2ccc(OCC3(CO)COC3)cc2)cc1)CO [Compound 68, (S,E)-2-(2-((S)-1-hydroxyethyl)-1H-imidazol-1-yl)-4-(4′-((3-(hydroxymethyl)oxetan-3-yl)methoxy)-[1,1′-biphenyl]-4-yl)but-3-en-1-ol]	–	–	–
0.25 µg/mL	4 µg/mL	0.5 µg/mL	2 µg/mL	CC(=O)O[C@@H]1C[C@H]1c1ccc(-c2ccc(/C=C/[C@@H](CO)n3ccnc3[C@H](C)O)cc2)cc1 [Compound 69, (1R,2S)-2-(4′-((S,E)-4-hydroxy-3-(2-((S)-1-hydroxyethyl)-1H-imidazol-1-yl)but-1-en-1-yl)-[1,1′-biphenyl]-4-yl)cyclopropyl acetate]	–	–	–
2 µg/mL (≈ 4.31 µM)	4 µg/mL (≈ 8.61 µM)	8 µg/mL (≈ 17.2 µM)	4 µg/mL (≈ 8.61 µM)	C[C@H](O)c1nccn1[C@@H](/C=C/c1ccc(-c2ccc(C3CC3OC(CO)CO)cc2)cc1)CO (stereo partly drawn) [Compound 70, 2-(2-(4′-((S,E)-4-hydroxy-3-(2-((S)-1-hydroxyethyl)-1H-imidazol-1-yl)but-1-en-1-yl)-[1,1′-biphenyl]-4-yl)cyclopropoxy)propane-1,3-diol]	–	–	–
0.5 µg/mL (≈ 1.15 µM)	4 µg/mL (≈ 9.21 µM)	0.5 µg/mL (≈ 1.15 µM)	2 µg/mL (≈ 4.6 µM)	C[C@H](O)c1nccn1[C@@H](/C=C/c1ccc(-c2ccc([C@@H]3C[C@H]3OCCO)cc2)cc1)CO [Compound 71, (S,E)-4-(4′-((1S,2R)-2-(2-hydroxyethoxy)cyclopropyl)-[1,1′-biphenyl]-4-yl)-2-(2-((S)-1-hydroxyethyl)-1H-imidazol-1-yl)but-3-en-1-ol]	–	–	–
2 µg/mL (≈ 4.31 µM)	2 µg/mL (≈ 4.31 µM)	8 µg/mL (≈ 17.3 µM)	2 µg/mL (≈ 4.31 µM)	C[C@H](O)c1nccn1[C@@H](/C=C/c1ccc(-c2ccc(C3C[C@H]3OCC(N)CO)cc2)cc1)CO (stereo partly drawn) [Compound 72, (2S,E)-4-(4′-((1S,2R)-2-(2-amino-3-hydroxypropoxy)cyclopropyl)-[1,1′-biphenyl]-4-yl)-2-(2-((S)-1-hydroxyethyl)-1H-imidazol-1-yl)but-3-en-1-ol]	–	–	–
0.5 µg/mL (≈ 1.15 µM)	4 µg/mL (≈ 9.21 µM)	1 µg/mL (≈ 2.3 µM)	2 µg/mL (≈ 4.6 µM)	C[C@H](O)c1nccn1[C@@H](/C=C/c1ccc(-c2ccc(O[C@@H]3CCC[C@H]3O)cc2)cc1)CO [Compound 73, (1R,2R)-2-((4′-((S,E)-4-hydroxy-3-(2-((S)-1-hydroxyethyl)-1H-imidazol-1-yl)but-1-en-1-yl)-[1,1′-biphenyl]-4-yl)oxy)cyclopentan-1-ol]	–	–	–
8 µg/mL (≈ 17.6 µM)	1 µg/mL (≈ 2.2 µM)	> 32 µg/mL	2 µg/mL (≈ 4.41 µM)	C[C@H](O)c1nccn1[C@@H](/C=C/c1ccc(-c2ccc(OCC(N)(CO)CO)cc2)cc1)CO [Compound 74, 2-amino-2-(((4′-((S,E)-4-hydroxy-3-(2-((S)-1-hydroxyethyl)-1H-imidazol-1-yl)but-1-en-1-yl)-[1,1′-biphenyl]-4-yl)oxy)methyl)propane-1,3-diol]	–	–	–
0.25 µg/mL (≈ 0.543 µM)	4 µg/mL (≈ 8.69 µM)	0.5 µg/mL (≈ 1.09 µM)	2 µg/mL (≈ 4.34 µM)	C[C@H](O)c1nccn1[C@@H](/C=C/c1ccc(-c2ccc(C3CC(NCC#N)C3)cc2F)cc1)CO (stereo partly drawn) [Compound 75, 2-((3-(2-fluoro-4′-((S,E)-4-hydroxy-3-(2-((S)-1-hydroxyethyl)-1H-imidazol-1-yl)but-1-en-1-yl)-[1,1′-biphenyl]-4-yl)cyclobutyl)amino)acetonitrile]	–	–	–

The remaining lines, values behind:

SMILES	MIC (E. coli ATCC25922; [1])	MIC (P. aeruginosa ATCC27835; [2])	MIC (K. pneumoniae ATCC13883; [3])	MIC (P. aeruginosa 209 PAO1; [4])	IC50 (P. aeruginosa LpxC)	IC50 (E. coli LpxC)	also measured
C[C@H](O)c1nccn1C/C=C/c1ccc(-c2ccc(O[C@@H]3C[C@H]3N)cc2)cc1 (racemic) [Compound 4, (S)-1-(1-((E)-3-(4′-((trans)-2-aminocyclopropoxy)-[1,1′-biphenyl]-4-yl)allyl)-1H-imidazol-2-yl)ethan-1-ol]	0.12 µg/mL (≈ 0.32 µM)	4 µg/mL (≈ 10.7 µM)	0.12 µg/mL (≈ 0.32 µM)	2 µg/mL (≈ 5.33 µM)	23.2 nM	9.25 nM	–
C[C@H](O)c1nccn1[C@@H](/C=C/c1ccc(-c2ccc(OCC(CO)N(C)C)cc2)cc1)CO (mixture of isomers) [Compound 12, (2S,E)-4-(4′-(2-(dimethylamino)-3-hydroxypropoxy)-[1,1′-biphenyl]-4-yl)-2-(2-((S)-1-hydroxyethyl)-1H-imidazol-1-yl)but-3-en-1-ol]	4 µg/mL (≈ 8.86 µM)	4 µg/mL (≈ 8.86 µM)	16 µg/mL (≈ 35.4 µM)	4 µg/mL (≈ 8.86 µM)	69.2 nM	82.5 nM	–
C[C@H](O)c1nccn1[C@@H](/C=C/c1ccc(-c2ccc(OCC(N)CO)cc2)cc1)CO (mixture of isomers) [Compound 25, (2S,E)-4-(4′-(2-amino-3-hydroxypropoxy)-[1,1′-biphenyl]-4-yl)-2-(2-((S)-1-hydroxyethyl)-1H-imidazol-1-yl)but-3-en-1-ol]	–	–	–	–	70.6 nM	44.6 nM	MIC E. coli ATCC25922 (E. coli ATCC25922; [5]): 2 µg/mL (≈ 4.72 µM); MIC P. aeruginosa ATCC27835 (P. aeruginosa ATCC27835; [5]): 2 µg/mL (≈ 4.72 µM); MIC K. pneumoniae ATCC13883 (K. pneumoniae ATCC13883; [5]): 4 µg/mL (≈ 9.44 µM); MIC P. aeruginosa 209 PAO1 (P. aeruginosa 209 PAO1; [5]): 2 µg/mL (≈ 4.72 µM)
C[C@H](O)c1nccn1[C@@H](/C=C/c1ccc(-c2ccc(O[C@H]3C[C@@H]3N)cc2)cc1)CO (single isomer, unassigned) [Compound 14]	1 µg/mL (≈ 2.47 µM)	8 µg/mL (≈ 19.7 µM)	2 µg/mL (≈ 4.93 µM)	1 µg/mL (≈ 2.47 µM)	22.3 nM	9.51 nM	–
C[C@H](O)c1nccn1C/C=C/c1ccc(-c2ccc(OC3CCN(CCO)CC3)cc2)cc1 [Compound 1, (S,E)-2-(4-((4′-(3-(2-(1-hydroxyethyl)-1H-imidazol-1-yl)prop-1-en-1-yl)-[1,1′-biphenyl]-4-yl)oxy)piperidin-1-yl)ethan-1-ol]	1 µg/mL (≈ 2.23 µM)	4 µg/mL (≈ 8.94 µM)	1 µg/mL (≈ 2.23 µM)	4 µg/mL (≈ 8.94 µM)	81 nM	25.8 nM	–
C[C@H](O)c1nccn1C/C=C/c1ccc(-c2ccc(OC3CCN(CC(O)CO)CC3)cc2)cc1 (stereo partly drawn) [Compound 2, 3-(4-((4′-((E)-3-(2-((S)-1-hydroxyethyl)-1H-imidazol-1-yl)prop-1-en-1-yl)-[1,1′-biphenyl]-4-yl)oxy)piperidin-1-yl)propane-1,2-diol]	1 µg/mL (≈ 2.09 µM)	4 µg/mL (≈ 8.38 µM)	2 µg/mL (≈ 4.19 µM)	4 µg/mL (≈ 8.38 µM)	15.5 nM	17 nM	–
C[C@H](O)c1nccn1C/C=C/c1ccc(-c2ccc(OC[C@H](N)CO)cc2)cc1 [Compound 3, (R)-2-amino-3-((4′-((E)-3-(2-((S)-1-hydroxyethyl)-1H-imidazol-1-yl)prop-1-en-1-yl)-[1,1′-biphenyl]-4-yl)oxy)propan-1-ol]	2 µg/mL (≈ 5.08 µM)	4 µg/mL (≈ 10.2 µM)	8 µg/mL (≈ 20.3 µM)	4 µg/mL (≈ 10.2 µM)	132 nM	11.4 nM	–
C[C@H](O)c1nccn1[C@@H](/C=C/c1ccc(-c2ccc([C@H]3C[C@H](NC(=O)CC#N)C3)cc2)cc1)CO [Compound 65, 2-cyano-N-((1S,3r)-3-(4′-((S,E)-4-hydroxy-3-(2-((S)-1-hydroxyethyl)-1H-imidazol-1-yl)but-1-en-1-yl)-[1,1′-biphenyl]-4-yl)cyclobutyl)acetamide]	–	–	–	–	–	–	MIC (E. coli ATCC25922; [6]): 0.5 µg/mL (≈ 1.06 µM); MIC (P. aeruginosa ATCC27835; [7]): 2 µg/mL (≈ 4.25 µM); MIC (K. pneumoniae ATCC13883; [8]): 1 µg/mL (≈ 2.13 µM); MIC (P. aeruginosa 209 PAO1; [9]): 2 µg/mL (≈ 4.25 µM)
C[C@H](O)c1nccn1[C@@H](/C=C/c1ccc(-c2ccc([C@H]3C[C@H](NC(=O)CN(C)C)C3)cc2)cc1)CO [Compound 66, 2-(dimethylamino)-N-((1S,3r)-3-(4′-((S,E)-4-hydroxy-3-(2-((S)-1-hydroxyethyl)-1H-imidazol-1-yl)but-1-en-1-yl)-[1,1′-biphenyl]-4-yl)cyclobutyl)acetamide]	–	–	–	–	–	–	MIC (E. coli ATCC25922; [6]): 4 µg/mL (≈ 8.19 µM); MIC (P. aeruginosa ATCC27835; [7]): 4 µg/mL (≈ 8.19 µM); MIC (K. pneumoniae ATCC13883; [8]): 8 µg/mL (≈ 16.4 µM); MIC (P. aeruginosa 209 PAO1; [9]): 4 µg/mL (≈ 8.19 µM)
